Molecules are shown by their SMILES. pIC50: −log10 of the molar value. A value given as a limit tells only on which side of the number the result lay.

The first assay has as its target T1, hROMK1 (Kir1.1) (Homo sapiens, UniProt P48048).
T1 construct: expressed in transfected cells
T1 sequence (P48048 1-391): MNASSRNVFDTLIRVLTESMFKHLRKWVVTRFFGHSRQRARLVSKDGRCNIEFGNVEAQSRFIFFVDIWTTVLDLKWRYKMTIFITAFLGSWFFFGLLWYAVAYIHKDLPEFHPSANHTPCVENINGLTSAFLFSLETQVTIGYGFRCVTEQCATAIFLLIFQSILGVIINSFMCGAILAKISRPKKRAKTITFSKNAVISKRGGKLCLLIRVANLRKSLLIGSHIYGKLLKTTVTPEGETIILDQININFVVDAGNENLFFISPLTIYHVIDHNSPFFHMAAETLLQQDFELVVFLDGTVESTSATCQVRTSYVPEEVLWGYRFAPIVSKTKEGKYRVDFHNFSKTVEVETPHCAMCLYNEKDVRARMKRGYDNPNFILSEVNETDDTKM
The assay is described as follows: ^86Rb^+ Efflux Assay. In kind it is cell-based. The following applies: CHO-DHFR- cells stably expressing hROMK1; potency ranges. The protocol: (§1) Several assays may be used to measure functional inhibition of the ROMK channel by compounds of the instant invention. One primary assay that can be used is a functional ^86Rb^+ efflux assay that measures the ability of ROMK to permeate ^86Rb^+, in the absence or presence of test compound. Under control conditions, cells loaded with ^86Rb^+ and incubated in Rb^+-free medium display a time-dependent efflux of the isotope, the rate of which depends on number of functional channels. When cells are incubated in the presence of a channel inhibitor, efflux of ^86Rb^+ is prevented in a concentration-dependent manner, and IC50 values of inhibition by compounds can be accurately determined. This assay has been established with cell lines expressing either human, rat or dog ROMK channels, and can operate in 96- or 384-well format. Importantly, the human, rat, and dog ^86Rb^+ efflux assays can be carried out in the presence of up to 100% serum allowing, therefore, an accurate estimation of the effect of protein binding on the inhibitory activity of compounds of interest. Another ROMK functional assay makes use of the ability of thallium to permeate through open ROMK channels and increase the fluorescence of a dye previously loaded into the cells. Under control conditions, cells loaded with dye and exposed to thallium-containing medium display a time-dependent increase in fluorescence, the rate of which depends on number of functional channels. When cells are incubated in the presence of a channel inhibitor, the increase in fluorescence is attenuated in a concentration-dependent manner, and IC50 values of inhibition by compounds can be accurately determined. This assay has been established with cell lines expressing either human, or rat ROMK channels, and operates in 384-well format. Another assay for evaluation of the compounds of the instant invention and for evaluation of mechanism of action of compounds of Formula I relies on the measurement of the electrical current that is generated as potassium permeates through the channel. For these electrophysiological experiments, three different platforms, IonWorks, QPatch, or manual patch clamp, are used, depending on the experimental protocol under consideration. IonWorks operates in a 384-well format and allows accurate determination of IC50 values for inhibitors.
CHO-DHFR-cells stably expressing hROMK1 (Kir1.1) were grown at 37° C. in a 10% CO2 humidified incubator in Iscove's Modified Dulbecco's Medium (Gibco 12440) supplemented with HT Supplement, Penicillin/Streptomycin/Glutamine, G418 (500 μg/ml) and 10% FBS. Cells were seeded in Sterile and Tissue Culture Treated Packard CulturPlate White Opaque Microplates at a concentration of 5.0E5-7.0E5 cells/ml—PerkinElmer 6005680 (96-well); Corning 3707 (384 well) in complete media containing 1.5 μCi/ml Rubidium-86. Cells were incubated in 37° C.-10% CO2 incubator overnight. On the day of the experiment, the media was removed and cells washed with low K assay buffer. ^86Rb^+ efflux was initiated after addition of assay buffer±test compound followed by 35 min incubation at room temperature. ROMK-sensitive component of efflux was defined in the presence of 10 mM BaCl2. Assay buffer was removed and transferred to a plate and cells were solubilized in the presence of SDS. Radioactivity associated with assay and cell plate was determined.
• 1. Removed cell media and washed cells with low K assay buffer (126.9 mM NaCl, 4.6 mM KCl, 2 mM CaCl2, 1 mM MgCl2, 10 mM Hepes/NaOH; pH 7.4) • 200 μl for 96-well plate; 70 μl for 384-well plate • 2. Added assay buffer (121.5 mM NaCl, 10 mM KCl, 2 mM CaCl2, 1 mM MgCl2, 10 mM Hepes/NaOH; pH 7.4)±test compound to cells • 100 μl for 96-well plate; 50 μl for 384-well plate • 3. Incubated at ambient temperature (22-24° C.) for 35 min • 4.
As a reminder, the pIC50 is the negative decadic logarithm of the IC50, by convention in mol/L. A lower pIC50 goes with a large IC50. For `O=C1OCc2cc(SC3CCN(CC(O)c4ccc5c(c4)COC5=O)CC3)ccc21` (stereo not drawn) [Example 85, 5-({1-[2-hydroxy-2-(1-oxo-1,3-dihydro-2-benzofuran-5-yl)ethyl]piperidin-4-yl}sulfanyl)-2-benzofuran-1(3H)-one], the pIC50 was at least 6.30.
Still for that read-out and setting: with `Cc1c(CC(O)C2CCN(C[C@H](O)c3ccc4c(c3C)COC4=O)CC2)ccc2c1COC2=O` (stereo partly drawn) [Example 87, 5-[(1R)-1-Hydroxy-2-{4-[1-hydroxy-2-(4-methyl-1-oxo-1,3-dihydro-2-benzofuran-5-yl)ethyl]piperidin-1-yl}ethyl]-4-methyl-2-benzofuran-1(3H)-one] the figure was at least 6.70; with `Cc1c(CCN2CCC(NCc3ccc(C#N)c(F)c3)CC2)ccc2c1COC2=O` [Example 90, 2-Fluoro-4-[({1-[2-(4-methyl-1-oxo-1,3-dihydro-2-benzofuran-5-yl)ethyl]piperidin-4-yl}amino)methyl]benzonitrile], at least 6.30.

In another assay the target is T2, hROMK (hKir1.1) (Homo sapiens, UniProt P48048).
T2 construct: expressed in transfected cells
T2 sequence (P48048 1-391): T1 sequence (P48048 1-391)
The assay is described as follows: Thallium Flux Assay (FluxOR, FLIPR-Tetra). In kind it is cell-based. Conditions: HEK293 cells stably expressing hROMK; potency ranges. The protocol:
as §1
HEK293 cells stably expressing hROMK (hKir1.1) were grown at 37° C. in a 10% CO2 humidified incubator in complete growth media: Dulbecco's Modified Eagle Medium supplemented with non-essential amino acids, Penicillin/Streptomycin/Glutamine, G418 and FBS. At >80% confluency, media was aspirated from the flask and rinsed with 10 ml Calcium/Magnesium-free PBS. 5 ml of 1× trypsin (prepared in Ca/Mg Free PBS) was added to T-225 flask and flask returned to 37° C./CO2 incubator for 2-3 minutes. To dislodge the cell, the side of the flask was gently banged by hand. Cells were completely triturated and then transferred to 25 ml complete media, and centrifuged at 1,500 rpm for 6 min followed by resuspension in complete growth media and cell concentration determined. For typical re-seeding, 4E6 cells/T-225 flask attained >80% confluency in 4 days. Under ideal growth conditions and appropriate tissue culture practices, this cell line was stable for 40-45 passages.
FluxOR™ Kit Components (Invitrogen F10017)
• FluxOR™ Reagent (Component A) • FluxOR™ Assay Buffer (Component B)—10× Concentrate • PowerLoad™ Concentrate (Component C)—100× Concentrate • Probenecid (Component D)—Lyophilized sample was kept at −20° C. Water soluble, 100× after solubilization in 1 ml water. Store at 4° C. • FluxOR™ Chloride-free Buffer (Component E)—5× Concentrate • Potassium sulfate (K2SO4) Concentrate (Component F)—125 mM in water. Stored at 4° C. • Thallium sulfate (Tl2SO4) Concentrate (Component G)—50 mM in water. […]
Consider `O=C1OCc2cc(SC3CCN(CC(O)c4ccc5c(c4)COC5=O)CC3)ccc21` (stereo not drawn) [Example 85, 5-({1-[2-hydroxy-2-(1-oxo-1,3-dihydro-2-benzofuran-5-yl)ethyl]piperidin-4-yl}sulfanyl)-2-benzofuran-1(3H)-one], for which the pIC50 is at least 6.70.
For `Cc1c([C@@H](O)CN2CCC(C)(COc3ccc(C#N)cn3)CC2)ccc2c1COC2=O` [Example 107], the pIC50 is at least 7.00.
The same measure, in the same setting: then `Cc1c([C@@H](O)CN2CCC(CN(C)c3ccc(C#N)cn3)CC2)ccc2c1COC2=O` [Example 93, 6-[({1-[(2R)-2-Hydroxy-2-(4-methyl-1-oxo-1,3-dihydro-2-benzofuran-5-yl)ethyl]piperidin-4-yl}methyl)(methyl)amino]pyridine-3-carbonitrile], with at least 6.70; and `Cc1c([C@@H](O)CN2CCC(C[S+]([O-])c3ccc4c(c3)CCOC4=O)CC2)ccc2c1COC2=O` (stereo partly drawn) [Example 104, 6-[({1-[(2R)-2-Hydroxy-2-(4-methyl-1-oxo-1,3-dihydro-2-benzofuran-5-yl)ethyl]piperidin-4-yl}methyl)sulfinyl]-3,4-dihydro-1H-isochromen-1-one], with at least 7.00; and `Cc1c([C@@H](O)CN2CCC(F)(COc3ccc(C#N)cn3)CC2)ccc2c1COC2=O` [Example 102, 6-({4-Fluoro-1-[(2R)-2-hydroxy-2-(4-methyl-1-oxo-1,3-dihydro-2-benzofuran-5-yl)ethyl]piperidin-4-yl}methoxy)pyridine-3-carbonitrile], with at least 6.70.
Consider `Cc1c(CC(O)C2CCN(C[C@H](O)c3ccc4c(c3C)COC4=O)CC2)ccc2c1COC2=O` (stereo partly drawn) [Example 87, 5-[(1R)-1-Hydroxy-2-{4-[1-hydroxy-2-(4-methyl-1-oxo-1,3-dihydro-2-benzofuran-5-yl)ethyl]piperidin-1-yl}ethyl]-4-methyl-2-benzofuran-1(3H)-one], for which the pIC50 was at least 7.00.
`Cc1c(SCC2CCN(C[C@H](O)c3ccc4c(c3C)COC4=O)CC2)ccc2c1COC2=O` [Example 94, 5-[({1-[(2R)-2-Hydroxy-2-(4-methyl-1-oxo-1,3-dihydro-2-benzofuran-5-yl)ethyl]piperidin-4-yl}methyl)sulfanyl]-4-methyl-2-benzofuran-1(3H)-one] gave a pIC50 of at least 7.00.
On the same count and under the same terms, then `Cc1c([C@@H](O)CN2CCC(CS(=O)(=O)c3ccc4c(c3C)COC4=O)CC2)ccc2c1COC2=O` [Example 99], with at least 7.00; and `Cc1c(CCN2CCC(NCc3ccc(C#N)c(F)c3)CC2)ccc2c1COC2=O` [Example 90, 2-Fluoro-4-[({1-[2-(4-methyl-1-oxo-1,3-dihydro-2-benzofuran-5-yl)ethyl]piperidin-4-yl}amino)methyl]benzonitrile], with at least 6.70.
The same measure, in the same setting: with `Cc1c([C@@H](O)CN2CCC(CSc3ccc(C#N)cn3)CC2)ccc2c1COC2=O` [Example 100, 6-[({1-[(2R)-2-Hydroxy-2-(4-methyl-1-oxo-1,3-dihydro-2-benzofuran-5-yl)ethyl]piperidin-4-yl}methyl)sulfanyl]pyridine-3-carbonitrile] the figure was at least 7.00.
With `Cc1c([C@@H](O)CN2[C@@H]3CC[C@H]2CC(Nc2ccc(C#N)cn2)C3)ccc2c1COC2=O` (stereo partly drawn) [Example 112, 6-((1R,5S)-8-((R)-2-Hydroxy-2-(4-methyl-1-oxo-1,3-dihydroisobenzofuran-5-yl)ethyl)-8-azabicyclo[3.2.1]octan-3-ylamino)nicotinonitrile], the negative-log IC50 (pIC50) is at least 7.00.
The molecule `Cc1c([C@@H](O)CN2CC3C(COc4ccc(C#N)cn4)C3C2)ccc2c1COC2=O` (stereo partly drawn) [Example 106, 6-({3-[(2R)-2-Hydroxy-2-(4-methyl-1-oxo-1,3-dihydro-2-benzofuran-5-yl)ethyl]-3-azabicyclo[3.1.0]hex-6-yl}methoxy)pyridine-3-carbonitrile] gave a pIC50 of at least 7.00.
On the same count and under the same terms, with `Cc1c([C@@H](O)CN2CCC(Nc3ccc(C#N)cn3)CC2)ccc2c1COC2=O` [Example 111, (R)-6-(1-(2-Hydroxy-2-(4-methyl-1-oxo-1,3-dihydroisobenzofuran-5-yl)ethyl)piperidin-4-ylamino)nicotinonitrile] the figure was at least 7.00; with `Cc1c([C@@H](O)CN2CCC(CSc3ccc4c(c3)CCOC4=O)CC2)ccc2c1COC2=O` [Example 103, 6-[({1-[(2R)-2-Hydroxy-2-(4-methyl-1-oxo-1,3-dihydro-2-benzofuran-5-yl)ethyl]piperidin-4-yl}methyl)sulfanyl]-3,4-dihydro-1H-isochromen-1-one], at least 6.70.
The same measure, in the same setting: with `Cc1c(OCC2CCN(C[C@H](O)c3ccc4c(c3C)COC4=O)CC2)ccc2c1COC2=O` [Example 95, 5-({1-[(2R)-2-Hydroxy-2-(4-methyl-1-oxo-1,3-dihydro-2-benzofuran-5-yl)ethyl]piperidin-4-yl}methoxy)-4-methyl-2-benzofuran-1(3H)-one] the figure was at least 7.00; with `Cc1c(C(O)CC2CCN(C(=O)Cc3ccc(-n4cnnn4)nc3)CC2)ccc2c1COC2=O` (racemic) [Example 110, 5-[1-Hydroxy-2-(1-{[6-(1H-tetrazol-1-yl)pyridin-3-yl]acetyl}piperidin-4-yl)ethyl]-4-methyl-2-benzofuran-1(3H)-one], at least 7.00; with `Cc1c([C@@H](O)CN2CCC(CS(=O)(=O)c3ccc4c(c3)CCOC4=O)CC2)ccc2c1COC2=O` [Example 109, 6-[({1-[(2R)-2-Hydroxy-2-(4-methyl-1-oxo-1,3-dihydro-2-benzofuran-5-yl)ethyl]piperidin-4-yl}methyl)sulfonyl]-3,4-dihydro-1H-isochromen-1-one], at least 7.00.
The same measure, in the same setting: then `Cc1c([C@@H](O)CN2CCC(C[S+]([O-])c3ccc4c(c3C)COC4=O)CC2)ccc2c1COC2=O` (stereo partly drawn) [Example 96, 5-[({1-[(2R)-2-hydroxy-2-(4-methyl-1-oxo-1,3-dihydro-2-benzofuran-5-yl)ethyl]piperidin-4-yl}methyl)sulfinyl]-4-methyl-2-benzofuran-1(3H)-one], with at least 7.00.

Source of the values: patent US9527830B2 (Merck Sharp & Dohme Corp., priority 2011, dated 2016).
